# Target: T1, TRF1 (Mus musculus, UniProt P70371)
# T1 construct: endogenous in cells; host or cells: CHA9.3 primary murine lung cancer cell line
# T1 sequence (P70371 1-421): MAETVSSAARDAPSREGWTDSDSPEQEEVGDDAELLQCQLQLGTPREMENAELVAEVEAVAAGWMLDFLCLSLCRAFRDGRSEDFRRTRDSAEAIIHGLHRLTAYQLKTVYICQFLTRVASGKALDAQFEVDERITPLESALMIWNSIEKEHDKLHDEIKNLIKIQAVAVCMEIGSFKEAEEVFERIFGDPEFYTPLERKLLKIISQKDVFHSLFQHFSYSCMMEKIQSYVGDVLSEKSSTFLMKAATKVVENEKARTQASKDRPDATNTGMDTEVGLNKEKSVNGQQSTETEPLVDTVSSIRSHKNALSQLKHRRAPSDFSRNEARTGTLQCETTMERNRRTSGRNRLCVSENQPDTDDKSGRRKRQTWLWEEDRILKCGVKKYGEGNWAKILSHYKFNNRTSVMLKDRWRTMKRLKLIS
# Assay: Measurement of TRF1 levels at telomere by immunofluorescence
# Assay type: cell-based
# Details: CHA9.3 cells (primary murine lung cancer cell line), compound at 10 µM, 24 hours, duplicates
# Protocol: Assay was performed in CHA9.3, a primary murine cell line derived from a lung cancer. (Garcia-Beccaria et al., 2015). Cells were grown in DMEM (Gibco) supplemented with 10% FBS (fetal bovine serum), 1% penicillin/estreptomicen (Someglas 100U/ml) and 0.5% Amphotericin B (Gibco). Cells were incubated at 37 °C with 5% CO2. Cells were trypsinized with Trypsin-EDTA (Sigma) and washed with PBS (BioWhittaker) before counting and plating.
# Cells were seeded in 10000 cells per 150 µl per well into black 96-well plates (Falcon) and incubated for 16 h at 37°C, 5% CO2. On day two, duplicates of each compound at 10 µM in DMSO were tested. The compounds were added to duplicate wells in 96-well cell plates using a FX BECKMAN robot (BeckmanCoulter) and were incubated at 37°C under CO2 atmosphere. After 24 hours, relative levels of TRF1 at telomeres were quantified by immunofluorescence. A rat monoclonal antibody against mouse TRF1 developed by the Monoclonal antibody unit at CNIO was used to detect endogenous TRF1.
# First cells were fixed with 4 % formaldehyde (Sigma) in PBS (Alaos) during 13 minutes at room temperature (RT). After removal of the medium, cells were washed twice with PBS 10 minutes. Cells were permeabilized with a solution 0.2%Triton X-100 (Sigma) in PBS during 10 minutes at RT. After two more washes with PBS, cells were incubated with a solution 0.1%NaCitrate (Fluka) /0.1 %Triton X100 during 5 minutes at RT. After, two more washes with PBS cells were blocked with a solution 3% BSA (Sigma) in PBS-T, PBS with 0.05% Tween20 (Sigma), during 3 o 4 hours. Then, cells were incubated o/n at 4 °C with a dilution 1:750 of anti TRF1 antibody. After two washes of 10 minutes with PBS-T, cells were incubated with secondary antibody anti-rat 555 (Alexa Fluor) (1 :500) during 1 hour at RT: Then, 3 washes with PBS-T (0.05%) of 10 minutes and a last wash with PBS1X were performed. Nuclear staining was performed with Hoechst (Invitrogen) at de […] in PBS1X during10 minutes.
# For quantification of TRF1 foci intensity, pictures of fixed cells were automatically acquired from each well by the Opera High Content Screening (HCS) system (Perkin Elmer). Forty images of random fields per well, with a 40xmagnification lens, were taken under non-saturating conditions. At least 1 × 10^3 cells were analyzed for each well. Briefly, images were segmented using the DAPI staining to generate masks matching cell nuclei from which-TRF1 foci were analyzed. Automatic analysis was performed with Acapela v2.0 software. Quantification of the inhibition of TRF1 levels at telomeres was performed with Pipeline platform.
row,Compound,inhibition at 10 µM
1,NC(Cc1ccccc1)c1csc(Nc2ncccn2)n1 (racemic) [Compound 1],27.3%
2,NC(Cc1ccccc1Br)c1csc(Nc2ncccn2)n1 (racemic) [Compound 2],29.8%
3,NC(Cc1cccc(Br)c1)c1csc(Nc2ncccn2)n1 (racemic) [Compound 5],29.8%
4,NC(Cc1ccc(Br)cc1)c1csc(Nc2ncccn2)n1 (racemic) [Compound 8],32.4%
5,NC(Cc1cccc(Cl)c1)c1csc(Nc2ncccn2)n1 (racemic) [Compound 12],27.9%
6,NC(Cc1ccc([N+](=O)[O-])cc1)c1csc(Nc2ncccn2)n1 (racemic) [Compound 14],0%
7,C#CCOc1cccc(CC(N)c2csc(Nc3ncccn3)n2)c1 (racemic) [Compound 17],31.6%
8,C#CCOc1ccc(CC(N)c2csc(Nc3ncccn3)n2)cc1 (racemic) [Compound 20],19.4%
9,C#CCCCCOc1ccc(CC(N)c2csc(Nc3ncccn3)n2)cc1 (racemic) [Compound 26],0%
10,C#Cc1cccc(CC(N)c2csc(Nc3ncccn3)n2)c1 (racemic) [Compound 58],27.1%
11,C#Cc1cnc(Nc2nc(C(N)Cc3ccccc3)cs2)nc1 (racemic) [Compound 62],11.4%
12,C#Cc1ccc(CC(N)c2csc(Nc3ncccn3)n2)cc1 (racemic) [Compound 66],18.1%
13,C#CCOc1cccc(-c2sc(Nc3ncccn3)nc2C(N)Cc2ccccc2)c1 (racemic) [Compound 87],17.5%
14,"NC(Cc1ccccc1Br)c1csc(Nc2ncccn2)n1 (single isomer, unassigned) [Compound 3]",25.4%
15,"NC(Cc1cccc(Br)c1)c1csc(Nc2ncccn2)n1 (single isomer, unassigned) [Compound 6]",28.3%
16,"C#CCOc1cccc(CC(N)c2csc(Nc3ncccn3)n2)c1 (single isomer, unassigned) [Compound 18]",33.8%
17,C#CCOc1cccc(C[C@H](N)c2csc(Nc3ncccn3)n2)c1 [Compound 19],27.5%
18,Cc1ccnc(Nc2nc([C@@H](N)Cc3ccccc3)cs2)n1 [Compound 33],30%
19,N[C@@H](Cc1ccccc1)c1csc(Nc2ncc(Br)cn2)n1 [Compound 34],21%
20,N[C@@H](Cc1ccccc1)c1csc(Nc2ccccn2)n1 [Compound 35],20.5%

row,Compound,inhibition at 10 µM
1,Cc1cnc(Nc2nc([C@@H](N)Cc3ccccc3)cs2)nc1 [Compound 36],18.4%
2,COc1cc(C)nc(Nc2nc([C@@H](N)Cc3ccccc3)cs2)n1 [Compound 37],9.77%
3,Nc1ccc(CC(N)c2csc(Nc3ncccn3)n2)cc1 (centres unmarked) [Compound 52],10.5%
4,C#Cc1cccc(C[C@@H](N)c2csc(Nc3ncccn3)n2)c1 [Compound 60],24.8%
5,C#Cc1cccc(C[C@H](N)c2csc(Nc3ncccn3)n2)c1 [Compound 61],30.5%
6,C#Cc1cnc(Nc2nc([C@H](N)Cc3ccccc3)cs2)nc1 [Compound 63],11.7%
7,C#Cc1cnc(Nc2nc([C@@H](N)Cc3ccccc3)cs2)nc1 [Compound 64],6.41%
8,C#Cc1ccc(C[C@@H](N)c2csc(Nc3ncccn3)n2)cc1 [Compound 68],31.2%
9,C#Cc1ccc(C[C@H](N)c2csc(Nc3ncccn3)n2)cc1 [Compound 69],7.7%
10,C#CCCC(=O)Nc1cnc(Nc2nc(C(N)Cc3ccc(F)cc3)cs2)nc1 (centres unmarked) [Compound 74],15.5%
11,Nc1cccc(-c2sc(Nc3ncccn3)nc2C(N)Cc2ccccc2Br)c1 (centres unmarked) [Compound 78],27.8%
12,C#Cc1cccc(-c2sc(Nc3ncccn3)nc2C(N)Cc2ccccc2)c1 (centres unmarked) [Compound 81],19.7%
13,CC(=O)Nc1cccc(-c2sc(Nc3ncccn3)nc2C(N)Cc2ccccc2)c1 (centres unmarked) [Compound 83],17.2%
14,COCCOc1cccc(-c2sc(Nc3ncccn3)nc2[C@@H](N)Cc2ccccc2)c1 [Compound 84],16.3%
15,N[C@@H](Cc1ccccc1)c1nc(Nc2ncccn2)sc1Br [Compound 88],29.9%
16,N[C@@H](Cc1ccccc1)c1nc(Nc2ncccn2)sc1-c1cccc(O)c1 [Compound 89],23%
17,NC(Cc1cccc(O)c1)c1csc(Nc2ncccn2)n1 (centres unmarked) [Compound 105],29.5%
18,NC(Cc1ccc(O)cc1)c1csc(Nc2ncccn2)n1 (centres unmarked) [Compound 120],20%
19,C#CCOc1cccc(-c2sc(Nc3ncccn3)nc2[C@@H](N)Cc2ccccc2)c1 [Compound 122],5.33%
20,C#CCOc1cccc(-c2sc(Nc3ncccn3)nc2[C@H](N)Cc2ccccc2)c1 [Compound 123],10.9%

# Same assay, conditions: CHA9.3 cells (primary murine lung cancer cell line), compound at 10 µM, 24 hours, duplicates; 10 µM
row,Compound,% inhibition of TRF1 levels
1,"NC(Cc1ccccc1Br)c1csc(Nc2ncccn2)n1 (single isomer, unassigned) [Compound 4]",24.91%
2,"NC(Cc1cccc(Br)c1)c1csc(Nc2ncccn2)n1 (single isomer, unassigned) [Compound 7]",28.55%

# Same assay, conditions: qualitative SAR statement in the description
row,Compound,"TRF1 inhibition activity (active / inactive, in words)"
1,C#CCOc1cccc(CC(N)c2csc(Nc3ncccn3)n2)c1 (racemic) [Compound 17],active
2,C#CCOc1ccc(CC(N)c2csc(Nc3ncccn3)n2)cc1 (racemic) [Compound 20],active
3,"C#CCOc1cccc(CC(N)c2csc(Nc3ncccn3)n2)c1 (single isomer, unassigned) [Compound 18]",active
4,C#CCOc1cccc(C[C@H](N)c2csc(Nc3ncccn3)n2)c1 [Compound 19],active
5,COc1cc(C)nc(Nc2nc([C@@H](N)Cc3ccccc3)cs2)n1 [Compound 37],active
